Laboratory results reported in PubChem BioAssay (NCI).
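Exposure lasted 48 hours, with cells grown in 96-well plates and compounds tested at five concentrations. GI50 = concentration required for 50% inhibition of growth. Definition used: TGI = concentration required for complete inhibition of growth.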

Tests used:
Test in all cases: NCI tumour cell line growth inhibition, 48 h
SW-620 colon = system: SW-620 colon
UACC-62 melanoma = system: UACC-62 melanoma
CAKI-1 renal = system: CAKI-1 renal
RPMI-8226 leukemia = system: RPMI-8226 leukemia
786-0 renal = system: 786-0 renal
SK-MEL-5 melanoma = system: SK-MEL-5 melanoma
BT-549 breast = system: BT-549 breast
K-562 leukemia = system: K-562 leukemia
U251 CNS = system: U251 CNS
HCT-15 colon = system: HCT-15 colon
MOLT-4 leukemia = system: MOLT-4 leukemia
PC-3 prostate = system: PC-3 prostate
SF-295 CNS = system: SF-295 CNS
SNB-19 CNS = system: SNB-19 CNS
A498 renal = system: A498 renal
SNB-75 CNS = system: SNB-75 CNS
HS 578T breast = system: HS 578T breast
SF-539 CNS = system: SF-539 CNS
SK-MEL-28 melanoma = system: SK-MEL-28 melanoma
HOP-62 NSCLC = system: HOP-62 NSCLC
DU-145 prostate = system: DU-145 prostate
LOX IMVI melanoma = system: LOX IMVI melanoma
NCI-H460 lung = system: NCI-H460 lung
KM12 colon = system: KM12 colon
TK-10 renal = system: TK-10 renal
T-47D breast = system: T-47D breast
NCI/ADR-RES ovarian = system: NCI/ADR-RES ovarian
HT29 colon = system: HT29 colon
HL-60(TB) leukemia = system: HL-60(TB) leukemia
IGROV1 ovarian = system: IGROV1 ovarian
MDA-MB-231 breast = system: MDA-MB-231 breast
OVCAR-3 ovarian = system: OVCAR-3 ovarian
NCI-H23 lung = system: NCI-H23 lung
SN12C renal = system: SN12C renal
OVCAR-8 ovarian = system: OVCAR-8 ovarian
HOP-92 NSCLC = system: HOP-92 NSCLC
OVCAR-5 ovarian = system: OVCAR-5 ovarian
MDA-MB-435 = system: MDA-MB-435
OVCAR-4 ovarian = system: OVCAR-4 ovarian
MCF7 breast = system: MCF7 breast
NCI-H226 lung = system: NCI-H226 lung
RXF 393 renal = system: RXF 393 renal
CCRF-CEM leukemia = system: CCRF-CEM leukemia
UACC-257 melanoma = system: UACC-257 melanoma
MALME-3M melanoma = system: MALME-3M melanoma
HCC-2998 colon = system: HCC-2998 colon
SK-MEL-2 melanoma = system: SK-MEL-2 melanoma
M14 melanoma = system: M14 melanoma
SR leukemia = system: SR leukemia
ACHN renal = system: ACHN renal
COLO 205 colon = system: COLO 205 colon
NCI-H522 lung = system: NCI-H522 lung
SK-OV-3 ovarian = system: SK-OV-3 ovarian
HCT-116 colon = system: HCT-116 colon
SF-268 CNS = system: SF-268 CNS
A549 NSCLC = system: A549 NSCLC
UO-31 renal = system: UO-31 renal

In the case of `Cc1ccc(OCCCCCCNCCO)c(C)c1`, the GI50 (SW-620 colon) is reported as 16.3 µM, the TGI (SW-620 colon) is reported as 33 µM and the GI50 (UACC-62 melanoma) is reported as 12.1 µM. The TGI (UACC-62 melanoma) was 25.7 µM, the GI50 (CAKI-1 renal) was 16.2 µM and the TGI (CAKI-1 renal) was 32.2 µM. For the same compound, the GI50 (RPMI-8226 leukemia) was 15.5 µM, the TGI (RPMI-8226 leukemia) was 37.9 µM and the GI50 (786-0 renal) was 14 µM. It also gave a TGI (786-0 renal) of 28.8 µM, a GI50 (SK-MEL-5 melanoma) of 10.4 µM and a TGI (SK-MEL-5 melanoma) of 22.4 µM. The GI50 (BT-549 breast) was 13.5 µM, the TGI (BT-549 breast) was 28 µM and the GI50 (K-562 leukemia) was 12.2 µM. The TGI (K-562 leukemia) was 31.4 µM, the GI50 (U251 CNS) was 12.7 µM and the TGI (U251 CNS) was 26.8 µM. For the same compound, the GI50 (HCT-15 colon) was 15.8 µM, the TGI (HCT-15 colon) was 33.8 µM and the GI50 (MOLT-4 leukemia) was 16.3 µM. It also gave a TGI (MOLT-4 leukemia) of 36.8 µM, a GI50 (PC-3 prostate) of 14 µM and a TGI (PC-3 prostate) of 29.7 µM. It also gave a GI50 (SF-295 CNS) of 17.8 µM, a TGI (SF-295 CNS) of 39 µM and a GI50 (SNB-19 CNS) of 14.3 µM. It also gave a TGI (SNB-19 CNS) of 31 µM, a GI50 (A498 renal) of 3.48 µM and a TGI (A498 renal) of 17.7 µM. The GI50 (SNB-75 CNS) was 6.47 µM, the TGI (SNB-75 CNS) was 20.1 µM and the GI50 (HS 578T breast) was 14.3 µM. The TGI (HS 578T breast) was 35.5 µM, the GI50 (SF-539 CNS) was 14.7 µM and the TGI (SF-539 CNS) was 28.6 µM. The GI50 (SK-MEL-28 melanoma) was 15.4 µM, the TGI (SK-MEL-28 melanoma) was 29.9 µM and the GI50 (HOP-62 NSCLC) was 15 µM. The TGI (HOP-62 NSCLC) was 30.8 µM, the GI50 (DU-145 prostate) was 16.7 µM and the TGI (DU-145 prostate) was 30.6 µM. It also gave a GI50 (LOX IMVI melanoma) of 15 µM, a TGI (LOX IMVI melanoma) of 29.7 µM and a GI50 (NCI-H460 lung) of 14.9 µM. For the same compound, the TGI (NCI-H460 lung) was 30.8 µM, the GI50 (KM12 colon) was 17.2 µM and the TGI (KM12 colon) was 32.4 µM. For the same compound, the GI50 (TK-10 renal) was 16 µM, the TGI (TK-10 renal) was 30 µM and the GI50 (T-47D breast) was 11.7 µM. The TGI (T-47D breast) was 30.2 µM, the GI50 (NCI/ADR-RES ovarian) was 16.3 µM and the TGI (NCI/ADR-RES ovarian) was 37.1 µM. The GI50 (HT29 colon) was 11.3 µM, the TGI (HT29 colon) was 25.6 µM and the GI50 (HL-60(TB) leukemia) was 0.323 µM. It also gave a TGI (HL-60(TB) leukemia) of 1.45 µM, a GI50 (IGROV1 ovarian) of 16.2 µM and a TGI (IGROV1 ovarian) of 35.3 µM. For the same compound, the GI50 (MDA-MB-231 breast) was 9.11 µM, the TGI (MDA-MB-231 breast) was 25.5 µM and the GI50 (OVCAR-3 ovarian) was 15.5 µM. It also gave a TGI (OVCAR-3 ovarian) of 29.6 µM, a GI50 (NCI-H23 lung) of 15.5 µM and a TGI (NCI-H23 lung) of 35.4 µM. It also gave a GI50 (SN12C renal) of 12.7 µM, a TGI (SN12C renal) of 26.9 µM and a GI50 (OVCAR-8 ovarian) of 17.8 µM. The TGI (OVCAR-8 ovarian) was 35.9 µM, the GI50 (HOP-92 NSCLC) was 2.36 µM and the TGI (HOP-92 NSCLC) was 13.4 µM. The GI50 (OVCAR-5 ovarian) was 13.7 µM, the TGI (OVCAR-5 ovarian) was 28 µM and the GI50 (MDA-MB-435) was 12.3 µM. It also gave a TGI (MDA-MB-435) of 28.1 µM, a GI50 (OVCAR-4 ovarian) of 13.6 µM and a TGI (OVCAR-4 ovarian) of 28.8 µM. It also gave a GI50 (MCF7 breast) of 13.9 µM, a TGI (MCF7 breast) of 28.7 µM and a GI50 (NCI-H226 lung) of 15.1 µM. For the same compound, the TGI (NCI-H226 lung) was 32.9 µM, the GI50 (RXF 393 renal) was 6.53 µM and the TGI (RXF 393 renal) was 20.8 µM. The GI50 (CCRF-CEM leukemia) was 15.6 µM, the TGI (CCRF-CEM leukemia) was 36.7 µM and the GI50 (UACC-257 melanoma) was 14.2 µM. For the same compound, the TGI (UACC-257 melanoma) was 29.6 µM, the GI50 (MALME-3M melanoma) was 17 µM and the TGI (MALME-3M melanoma) was 35.3 µM. It also gave a GI50 (HCC-2998 colon) of 14.7 µM, a TGI (HCC-2998 colon) of 30.2 µM and a GI50 (SK-MEL-2 melanoma) of 19.8 µM. The TGI (SK-MEL-2 melanoma) was 37.6 µM, the GI50 (M14 melanoma) was 16.3 µM and the TGI (M14 melanoma) was 35.3 µM. It also gave a GI50 (SR leukemia) of 14.1 µM, a TGI (SR leukemia) of 35.5 µM and a GI50 (ACHN renal) of 13.8 µM. The TGI (ACHN renal) was 27.8 µM, the GI50 (COLO 205 colon) was 10 µM and the TGI (COLO 205 colon) was 26.3 µM. For the same compound, the GI50 (NCI-H522 lung) was 14.7 µM, the TGI (NCI-H522 lung) was 30.1 µM and the GI50 (SK-OV-3 ovarian) was 15.6 µM. The TGI (SK-OV-3 ovarian) was 29.8 µM, the GI50 (HCT-116 colon) was 14.2 µM and the TGI (HCT-116 colon) was 31.6 µM. For the same compound, the GI50 (SF-268 CNS) was 16 µM, the TGI (SF-268 CNS) was 31.1 µM and the GI50 (A549 NSCLC) was 17.8 µM. For the same compound, the TGI (A549 NSCLC) was 34.8 µM, the GI50 (UO-31 renal) was 12.1 µM and the TGI (UO-31 renal) was 26.4 µM.
